# In US20250281462A1, “THERAPEUTICALLY EFFECTIVE ORAL ADMINISTRATION OF A 2 ARYLBENZIMIDAZOLE” (Tranquis Therapeutics, Inc., priority 2021, published 2025):
# Where two headings read alike, the source gives them in different places.
# Legend:
# Type in all cases: in vivo
# [1] = Plasma and brain concentrations after single oral dose 45 mg/kg in mice; details: for Kp: brain, 45 mg/kg, mice, 45 mg/kg p.o.
# Protocol: Mice were administered a single oral dose of 45 mg/kg TQS-168. TQS-168 was prepared at a concentration of 5.0 mg/mL as a solution in 10% polyethylene glycol (PEG) 400|130% Kleptose (Roquette) 60% water.
# Concentrations in plasma and in brain were measured at various timepoints and various pharmacokinetic parameters were calculated, as shown below in Tables 4 and 5 and in FIGS. 19A and 19B.
# TQS-168 was prepared as a 4.5 mg/ml solution in PEG400 10%| Kleptose 30% sterile water 60%. A single oral dose of 45 mg/kg was administered. Concentrations of TQS-621 were measured in plasma and brain over time.
# [2] = Plasma concentrations after single intravenous dose in rats; details: male, Sprague Dawley, rat, 0.5 mg/kg intravenous
# Protocol: A total of 3 male, 7-9 week old, Sprague Dawley rats from Vital River were administered a single intravenous dose of TQS-168 at 0.5 mg/kg, in a volume of 0.5 mL/kg. TQS-168 was prepared in solution of 31.6% DMAC+36.8% ethanol+31.6% propylene glycol.
# Blood samples were collected at 0.5, 3, 10, 30, 60, 120, 240, 480 and 720 minutes after a single dose of TQS-168 and then processed. Blood samples were collected via saphenous vein puncture into a K2EDTA tube, centrifuged at 4° C. at 4600 rpm for 5 minutes, and plasma collected and stored at less than −20° C. prior to being analyzed by LC-MS for TQS-168 concentrations. Data are presented as concentrations of TQS-168 (ng/mL) in plasma and graphed in FIG. 15 (individual rats) and 16 (average).
# [3] = Plasma concentrations of TQS-168 and TQS-621 after single oral dose 50 mg/kg in mice, three formulations; details: male, C57BL/6, mouse, plasma, po, 50 mg/kg; for Cmax / AUC(0-t) / Tmax / AUC(0-inf) / half-life: mice plasma; for Cmax: read-out: Cmax; for Tmax: read-out: tmax; for concentration at 0.25 h: mice, Group 1 (suspension, methylcellulose in PBS), read-out: Calculated Concentration in plasma
# Protocol: In a second experiment, mice were administered 50 mg/kg TQS-168 by oral gavage. For Group 1, TQS-168 was prepared at a concentration of 5.0 mg/mL in a suspension with […] in PBS. For Group 2, TQS-168 was prepared at a concentration of 5.0 mg/mL as a solution in 10 polyethylene glycol (PEG) 400|30 Kleptose (Roquete)|60% water.
# Plasma exposures for Group 1 mice (ng/mL) are presented in Table 2 and for Group 2 mice in Table 3.
# C57BL/6 male mice were administered a single dose of TQS-168 at 50 mg/kg using one of three formulations: Group 1-5.0 mg/ml suspension in 0.5% methylcellulose in PBS; Group 2-5.0 mg/ml solution in PEG400 (Fluka) 10%|Kleptose (Roquette) 30%|sterile water 60%; Group 3-5.0 mg/ml suspension in Labrafil M 1944 CS (Gattefosse) 30%|Masine CC (Gattefosse) 5%|Miglyol 812N 10%|sterile water 55%.
# Plasma concentrations of TQS-168 and TQS-621 were measured overtime.
# [4] = mice brain, TQS-168 45 mg/kg p.o., solution PEG 400/Kleptose/water
# [5] = mice plasma, TQS-168 45 mg/kg p.o., solution PEG 400/Kleptose/water
# [6] = mouse, po, mice brain, TQS-168 45 mg/kg p.o., solution PEG 400/Kleptose/water
# [7] = mouse, po, mice plasma, TQS-168 45 mg/kg p.o., solution PEG 400/Kleptose/water
# [8] = TQS-168 50 mg/kg p.o., Group 1 (suspension, 0.5% methylcellulose in PBS), individual mouse
# [9] = TQS-168 50 mg/kg p.o., Group 1 (suspension, 0.5% methylcellulose in PBS), mean
# [10] = TQS-168 50 mg/kg p.o., Group 2 (solution, PEG400/Kleptose/water), individual mouse
# [11] = TQS-168 50 mg/kg p.o., Group 2 (solution, PEG400/Kleptose/water), mean
# [12] = TQS-168 50 mg/kg p.o., Group 3 (suspension, Labrafil/Masine/Miglyol/water), individual mouse
# [13] = TQS-168 50 mg/kg p.o., Group 3 (suspension, Labrafil/Masine/Miglyol/water), mean
smiles,measurement,setting,value
"CC(C)(C)c1ccc(-c2nc3ccccc3[nH]2)cc1 [TQS-168, 2-(4-tert-butylphenyl)-1H-benzimidazole]",AUCExtr,[1]; [4],0.308%
same,AUCInf,[1]; [4],24668 ng·h/g
same,AUCInf/D,[1]; [4],548 kg·ng·h/g/mg
same,AUClast,"[1]; mice brain, TQS-168 45 mg/kg p.o., solution PEG 400/Kleptose/water, last time point 24 hr",24592 ng·h/g
same,AUCExtr,[1]; [5],0.188%
same,AUCInf/D,[1]; [5],302 kg·ng·h/mL/mg
same,Kp,"[1]; mouse, po, read-out: Brain-to-plasma AUC ratio",1.81
same,Kp,"[1]; mouse, po, read-out: Brain-to-plasma Cmax ratio",1.84
same,Cmax,[1]; [6],4260 ng/g
same,MRT inf,[1]; [6],3.45 h
same,Tmax,[1]; [6],1 h
same,half-life,[1]; [6],3.66 h
same,AUC(0-inf),[1]; [7],13600 ng·h/mL
same,Cmax,[1]; [7],2310 ng/mL
same,MRT inf,[1]; [7],3.35 h
same,Tmax,[1]; [7],0.5 h
same,half-life,[1]; [7],3.26 h
same,AUC(0-t),"[1]; mouse, po, mice plasma, TQS-168 45 mg/kg p.o., solution PEG 400/Kleptose/water, last time point 24 hr",13600 ng·h/mL
same,half-life,[2],9.72 min
same,clearance,[2]; read-out: clearance rate (converted),155 mL/min/kg
same,Cmax,"[3]; 50 mg/kg p.o., Group 1 (suspension)",4.5 µM
same,Cmax,"[3]; 50 mg/kg p.o., Group 2 (solution)",8.54 µM
same,Cmax,"[3]; 50 mg/kg p.o., Group 3 (suspension)",2.4 µM
same,AUC(0-t),[3]; [8],5040 ng·h/mL
same,Cmax,[3]; [8],1280 ng/mL
same,Tmax,[3]; [8],1 h
same,AUC(0-inf),[3]; [9],8110 ng·h/mL
same,AUC(0-t),[3]; [9],5970 ng·h/mL
same,half-life,[3]; [9],4.3 h
same,Cmax,[3]; [9],1120 ng/mL
same,Tmax,[3]; [9],0.833 h
same,AUC(0-inf),[3]; [10],11400 ng·h/mL
same,AUC(0-t),[3]; [10],10600 ng·h/mL
same,half-life,[3]; [10],2.81 h
same,Cmax,[3]; [10],1950 ng/mL
same,Tmax,[3]; [10],0.5 h
same,AUC(0-inf),[3]; [11],11400 ng·h/mL
same,AUC(0-t),[3]; [11],10700 ng·h/mL
same,half-life,[3]; [11],2.82 h
same,Cmax,[3]; [11],2140 ng/mL
same,Tmax,[3]; [11],0.833 h
same,AUC(0-inf),[3]; [12],4250 ng·h/mL
same,AUC(0-t),[3]; [12],4110 ng·h/mL
same,half-life,[3]; [12],1.47 h
same,Cmax,[3]; [12],611 ng/mL
same,AUC(0-inf),[3]; [13],4150 ng·h/mL
same,AUC(0-t),[3]; [13],3930 ng·h/mL
same,half-life,[3]; [13],1.71 h
same,Cmax,[3]; [13],611 ng/mL
same,Tmax,[3]; [13],3.17 h
same,concentration at 0.25 h,"[3]; 50 mg/kg p.o., individual mouse",586 ng/mL
same,concentration at 0.25 h,"[3]; 50 mg/kg p.o., mean",653 ng/mL
